In brackets after ≈: the same amount, converted by molar mass. Activity calls are given as the source filed them. The rule behind the calls is not given here.
Tests used:
Mus musculus [1] = experiment: Antiarthritic activity against anticollagen antibody-induced arthritis BALB/c mouse model assessed as reduction in swelling of digits administered orally twice a day followed by LPS stimulation after 6 hrs measured until day 12; format: functional, organism-based; details: dose 2-10 mg/kg, time 12.0 day
[2] = molecular target: T1, Tumor necrosis factor receptor superfamily member 1A (Homo sapiens) (UniProt P19438); experiment: Binding affinity to TNFR1 (unknown origin) assessed as apparent molecular weight of protein at 25 uM by ultracentrifugation analysis (reference value: 27 kDa)
T1 sequence (whole entry): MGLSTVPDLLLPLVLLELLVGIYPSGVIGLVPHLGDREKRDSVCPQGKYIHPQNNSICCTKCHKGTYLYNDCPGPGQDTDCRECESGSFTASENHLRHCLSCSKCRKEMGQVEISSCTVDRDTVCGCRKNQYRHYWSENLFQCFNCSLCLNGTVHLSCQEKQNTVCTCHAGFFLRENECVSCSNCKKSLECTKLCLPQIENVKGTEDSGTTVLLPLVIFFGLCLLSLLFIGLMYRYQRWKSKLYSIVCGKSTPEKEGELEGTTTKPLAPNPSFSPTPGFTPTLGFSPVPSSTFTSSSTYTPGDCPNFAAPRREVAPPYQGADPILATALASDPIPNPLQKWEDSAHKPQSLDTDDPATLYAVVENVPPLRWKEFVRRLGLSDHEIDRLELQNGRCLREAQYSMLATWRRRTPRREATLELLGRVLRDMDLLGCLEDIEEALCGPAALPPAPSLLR

[3] = Permeability of the compound across apical to basolateral side of membrane in human Caco-2 cells; format: ADME, cell-based; details: read-out: permeability
Cytochrome P450 2C19 = Cytochrome P450 2C19 (Homo sapiens, UniProt P33261); experiment: Inhibition of recombinant CYP2C19 (unknown origin); format: ADME
Chain of Cytochrome P450 2C19 (P33261 whole entry): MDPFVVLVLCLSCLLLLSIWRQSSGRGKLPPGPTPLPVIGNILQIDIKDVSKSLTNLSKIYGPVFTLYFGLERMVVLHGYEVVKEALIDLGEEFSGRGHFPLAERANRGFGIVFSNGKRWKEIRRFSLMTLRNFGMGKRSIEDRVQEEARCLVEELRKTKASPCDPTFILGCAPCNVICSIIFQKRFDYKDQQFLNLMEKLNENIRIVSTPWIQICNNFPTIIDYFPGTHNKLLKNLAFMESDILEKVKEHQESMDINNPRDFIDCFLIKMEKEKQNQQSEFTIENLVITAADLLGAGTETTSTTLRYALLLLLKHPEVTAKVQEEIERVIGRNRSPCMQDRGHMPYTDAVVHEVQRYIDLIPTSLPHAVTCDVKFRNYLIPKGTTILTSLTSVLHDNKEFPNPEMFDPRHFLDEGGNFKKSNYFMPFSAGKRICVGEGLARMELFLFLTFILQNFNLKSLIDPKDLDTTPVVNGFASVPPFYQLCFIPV

Mus musculus [4] = experiment: Antiinflammatory activity in TNFalpha-induced C57BL/6J mouse assessed as inhibition of serum IL-6 levels at 5 to 25 mg/kg, po pretreated with compound prior to 1 hr of TNFalpha challenge and measured 2 hrs post TBFalpha challenge by ELISA; format: functional, organism-based; details: dose 5-25 mg/kg, time 3.0 hrs
[5] = molecular target: T1, Tumor necrosis factor receptor superfamily member 1A (Homo sapiens); experiment: Binding affinity to TNFR1 (unknown origin) assessed as sedimentation coefficient (S) value at 25 uM in presence of human TNFalpha by ultracentrifugation analysis (reference value: 2.2)
[6] = Metabolic stability in rat liver microsomes assessed as half-life; format: ADME, Microsome
[7] = Total AUC in mouse at 2 mg/kg, po; format: ADME, organism-based; parameters: time AUCmax, route oral, dose 2 mg/kg; details: in vivo
[8] = Selectivity ratio of drug exposure in TNFalpha-induced C57BL/6J mouse at 25 mg/kg, po at 3 hrs post dose to IC50 for inhibition of human TNFalpha expressed in HEK-Blue-CD40L cells assessed as inhibition of NFkappaB activation by quanti-blue based SEAP assay
[9] = Metabolic stability in mouse liver microsomes assessed as half-life; format: ADME, Microsome
[10] = molecular target: T1, Tumor necrosis factor receptor superfamily member 1A (Homo sapiens); experiment: Binding affinity to TNFR1 (unknown origin) assessed as sedimentation coefficient (S) value at 25 uM by ultracentrifugation analysis (reference value: 2.2)
[11] = Metabolic stability in mouse liver microsomes assessed as parent compound remaining after 10 mins; format: ADME, Microsome; details: read-out: Stabilty
Cytochrome P450 3A4 = Cytochrome P450 3A4 (Homo sapiens, UniProt P08684); experiment: Inhibition of recombinant CYP3A4 (unknown origin) in presence of BFC as substrate; format: ADME
Chain of Cytochrome P450 3A4 (P08684 whole entry): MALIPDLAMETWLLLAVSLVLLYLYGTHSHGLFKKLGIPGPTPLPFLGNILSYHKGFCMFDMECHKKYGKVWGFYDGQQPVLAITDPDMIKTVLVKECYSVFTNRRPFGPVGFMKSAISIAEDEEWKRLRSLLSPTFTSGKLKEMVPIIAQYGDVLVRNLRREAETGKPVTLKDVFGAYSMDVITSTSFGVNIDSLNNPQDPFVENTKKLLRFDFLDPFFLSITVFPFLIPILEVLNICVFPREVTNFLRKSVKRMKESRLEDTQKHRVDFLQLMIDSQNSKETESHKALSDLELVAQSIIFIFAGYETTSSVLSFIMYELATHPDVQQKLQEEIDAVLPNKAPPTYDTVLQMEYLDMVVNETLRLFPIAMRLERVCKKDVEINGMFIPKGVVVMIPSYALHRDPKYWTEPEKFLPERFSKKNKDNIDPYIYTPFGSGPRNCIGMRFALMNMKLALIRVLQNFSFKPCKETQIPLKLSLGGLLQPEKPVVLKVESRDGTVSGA

[12] = Permeability of the compound across basolateral to apical side of membrane in human Caco-2 cells; format: ADME, cell-based; details: read-out: permeability
Tumor necrosis factor [13] = molecular target: T2, Tumor necrosis factor (Homo sapiens, UniProt P01375); experiment: Inhibition of human recombinant His-tagged TNF-alpha-mediated E-selectin expression in HUVEC cells preincubated for 30 mins in presence of TNFalpha and measured after 3 hrs by flow cytometry analysis; format: cell-based
T2 sequence (P01375 whole entry): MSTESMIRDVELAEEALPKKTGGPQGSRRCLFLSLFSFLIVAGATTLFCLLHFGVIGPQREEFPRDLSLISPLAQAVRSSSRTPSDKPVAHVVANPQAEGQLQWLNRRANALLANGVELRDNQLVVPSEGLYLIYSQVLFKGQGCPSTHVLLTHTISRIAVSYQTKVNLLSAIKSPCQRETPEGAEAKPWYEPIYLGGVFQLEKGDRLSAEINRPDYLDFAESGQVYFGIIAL

CD40 ligand = molecular target: T3, CD40 ligand (Homo sapiens, UniProt P29965); experiment: Inhibition of CD40L (unknown origin)
T3 sequence (P29965 whole entry): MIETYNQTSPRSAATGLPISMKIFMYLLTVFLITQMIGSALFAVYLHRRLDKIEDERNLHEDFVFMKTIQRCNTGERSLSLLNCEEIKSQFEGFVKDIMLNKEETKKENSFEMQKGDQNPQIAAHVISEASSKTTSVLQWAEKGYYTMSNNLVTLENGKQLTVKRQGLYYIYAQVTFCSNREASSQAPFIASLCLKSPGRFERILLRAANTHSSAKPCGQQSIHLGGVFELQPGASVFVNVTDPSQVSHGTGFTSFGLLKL

[14] = Protein binding in mouse assessed as unbound fraction; format: ADME
[15] = Terminal drug exposure in anticollagen antibody-induced arthritis BALB/c mouse model at 2 mg/kg, po BID followed by LPS stimulation after 6 hrs measured on day 12; format: ADME, organism-based; details: in vivo, time 12 day, read-out: Drug uptake
[16] = Oral bioavailability in mouse at 2 mg/kg; format: ADME, organism-based; details: in vivo
Tumor necrosis factor [17] = molecular target: T2, Tumor necrosis factor; experiment: Displacement of fluorescent labeled probe from human recombinant His-tagged TNFalpha (77 to 233 residues) expressed in Escherichia coli preincubated for 1 hr followed by fluorogenic probe addition and measured after 3 hrs by HTRF assay
[18] = Drug exposure in TNFalpha-induced C57BL/6J mouse at 5 mg/kg, po pretreated with compound prior to 1 hr of TNFalpha challenge and measured at 3 hrs post dose; format: ADME, organism-based; details: in vivo, read-out: Drug uptake
[19] = Solubility of compound; format: physicochemical
Mus musculus [20] = experiment: Antiarthritic activity against anticollagen antibody-induced arthritis BALB/c mouse model assessed as reduction in LPS-induced MCP-1 levels administered orally twice daily followed by LPS stimulation after 6 hrs measured on day 12 by RT-PCR analysis; format: functional, organism-based; details: dose 2-10 mg/kg, time 12.0 day
[21] = Selectivity ratio of drug exposure in TNFalpha-induced C57BL/6J mouse at 5 mg/kg, po at 3 hrs post dose to IC50 for inhibition of human TNFalpha expressed in HEK-Blue-CD40L cells assessed as inhibition of NFkappaB activation by quanti-blue based SEAP assay
Mus musculus [22] = experiment: Antiarthritic activity against anticollagen antibody-induced arthritis BALB/c mouse model assessed as reduction in LPS-induced cells expressing B220 receptor administered orally twice daily followed by LPS stimulation after 6 hrs measured on day 12 by RT-PCR analysis; format: functional, organism-based; details: dose 2-10 mg/kg, time 12.0 day
[23] = molecular target: Voltage-gated inwardly rectifying potassium channel KCNH2 (Homo sapiens, UniProt Q12809); experiment: Inhibition of human ERG by patch clamp assay
Chain of Voltage-gated inwardly rectifying potassium channel KCNH2 (Q12809 whole entry): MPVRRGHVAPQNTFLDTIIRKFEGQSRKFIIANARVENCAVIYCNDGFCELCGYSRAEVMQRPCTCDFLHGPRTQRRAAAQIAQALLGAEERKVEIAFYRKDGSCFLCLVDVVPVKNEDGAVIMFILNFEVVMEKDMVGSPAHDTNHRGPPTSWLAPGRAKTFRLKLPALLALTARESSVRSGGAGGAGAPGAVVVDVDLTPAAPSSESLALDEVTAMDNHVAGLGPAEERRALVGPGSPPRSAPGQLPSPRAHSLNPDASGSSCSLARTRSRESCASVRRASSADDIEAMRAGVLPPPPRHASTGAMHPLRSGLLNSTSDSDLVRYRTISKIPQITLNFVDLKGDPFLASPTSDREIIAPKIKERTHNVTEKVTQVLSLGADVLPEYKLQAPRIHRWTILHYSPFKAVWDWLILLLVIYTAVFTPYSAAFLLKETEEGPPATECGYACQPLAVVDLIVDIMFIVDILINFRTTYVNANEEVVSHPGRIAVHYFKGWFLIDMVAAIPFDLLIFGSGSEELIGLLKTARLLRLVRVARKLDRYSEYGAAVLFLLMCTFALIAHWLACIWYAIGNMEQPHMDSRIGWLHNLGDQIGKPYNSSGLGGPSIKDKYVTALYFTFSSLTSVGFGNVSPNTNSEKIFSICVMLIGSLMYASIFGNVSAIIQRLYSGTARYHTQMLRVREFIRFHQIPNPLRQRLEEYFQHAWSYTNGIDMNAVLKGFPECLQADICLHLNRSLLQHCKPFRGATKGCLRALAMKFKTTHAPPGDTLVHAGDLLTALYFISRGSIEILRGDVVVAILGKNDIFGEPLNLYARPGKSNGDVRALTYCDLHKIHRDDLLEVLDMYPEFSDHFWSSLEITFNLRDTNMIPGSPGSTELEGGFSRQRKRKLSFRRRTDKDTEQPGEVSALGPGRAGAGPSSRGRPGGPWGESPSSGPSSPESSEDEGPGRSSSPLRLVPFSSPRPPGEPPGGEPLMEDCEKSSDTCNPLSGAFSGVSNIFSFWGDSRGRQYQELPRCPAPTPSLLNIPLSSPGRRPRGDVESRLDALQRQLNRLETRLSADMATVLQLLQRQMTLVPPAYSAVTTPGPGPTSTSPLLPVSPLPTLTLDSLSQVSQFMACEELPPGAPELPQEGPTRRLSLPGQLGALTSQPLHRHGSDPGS

[24] = Drug exposure in TNFalpha-induced C57BL/6J mouse at 25 mg/kg, po pretreated with compound prior to 1 hr of TNFalpha challenge and measured at 3 hrs post dose; format: ADME, organism-based; details: in vivo, read-out: Drug uptake
Mus musculus [25] = experiment: Antiarthritic activity against anticollagen antibody-induced arthritis BALB/c mouse model assessed as reduction in LPS-induced IL-6 production administered orally twice daily followed by LPS stimulation after 6 hrs measured on day 12 by RT-PCR analysis; format: functional, organism-based; details: dose 2-10 mg/kg, time 12.0 day
[26] = Half-life in mouse at 0.5 mg/kg, iv; format: ADME, organism-based; details: in vivo
Mus musculus [27] = experiment: Antiarthritic activity against anticollagen antibody-induced arthritis BALB/c mouse model assessed as reduction in LPS-induced CXCL12 levels administered orally twice daily followed by LPS stimulation after 6 hrs measured on day 12 by RT-PCR analysis; format: functional, organism-based; details: dose 2-10 mg/kg, time 12.0 day
[28] = Cmax in mouse at 2 mg/kg, po; format: ADME, organism-based; parameters: route oral, dose 2 mg/kg; details: in vivo

Papp A→B [3]: 20 ×10⁻⁶ cm/s
IC50 (Cytochrome P450 2C19): > 20 µM
half-life [6]: 1.15 h
AUC [7]: 5.9 µM·h
half-life [9]: 1.3 h
remaining at 10 min [11]: 86%
IC50 (Cytochrome P450 3A4): > 20 µM
Papp B→A [12]: 8 ×10⁻⁶ cm/s
IC50 (CD40 ligand): > 10 µM
Fu [14]: 0.6%
concentration at 288 h [15]: 340 nM
bioavailability [16]: 58%
concentration at 3 h [18]: 470 nM
solubility [19]: 1 µg/mL (≈ 2.02 µM)
concentration at 3 h [24]: 1860 nM
half-life [26]: 6.2 h
Cmax [28]: 470 nM
SMILES: Cc1nc2cc(F)c(-c3cnc(C(C)(C)O)nc3)nc2c(N[C@H](C)c2cc(C#N)ccc2F)c1Cl
Activity (Mus musculus [1]): Dose-dependent effect
Activity [2]: 27 kDa
Activity (Mus musculus [4]): Active
Activity index [5]: 2.2
Selectivity ratio [8]: 7
Activity index [10]: 2.2
IC50 (Tumor necrosis factor [13]): 0.03 µM
IC50 (Tumor necrosis factor [17]): 0.025 µM
Activity (Mus musculus [20]): Dose-dependent effect
Selectivity ratio [21]: 2
Activity (Mus musculus [22]): Dose-dependent effect
IC50 [23]: 5.6 µM
Activity (Mus musculus [25]): Dose-dependent effect
Activity (Mus musculus [27]): Dose-dependent effect
